In brackets after ≈: the same amount, converted by molar mass.

Common to all, as to assay type: cell-based
Assay [1] has as its system Streptococcus pneumoniae 1175. As to conditions: S. pneumoniae 1175 (mefA); microtiter broth dilution. In short, it runs like this: (§1)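 Where available, resistant strains were tested alongside the susceptible parent they derive from. The MIC, determined by tray-based broth dilution and NCCLS M100-S14 interpretation, served as the comparison value.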
Assay [2] concerns Streptococcus pneumoniae 1095. As to conditions: S. pneumoniae 1095 (ermB); microtiter broth dilution. The method in brief:
as §1
For orientation: Dilution methods test growth across graded concentrations, often in twofold steps.

For assay [3], the system named is Haemophilus influenzae 1218. Briefly: MIC, microtiter broth dilution (NCCLS M100-S14), H. influenzae 1218 (susceptible). As to conditions: H. influenzae 1218 (susceptible). In short, it runs like this: as §1
In assay [4] the test system is Streptococcus pyogenes 1079. Briefly: MIC, microtiter broth dilution (NCCLS M100-S14), S. pyogenes 1079 (ermB). As to conditions: S. pyogenes 1079 (ermB). The method in brief:
as §1

Assay [5] has as its system Streptococcus pneumoniae 1016. Briefly: MIC, microtiter broth dilution (NCCLS M100-S14), S. pneumoniae 1016 (susceptible). The conditions noted are these: S. pneumoniae 1016 (susceptible). The method in brief: as §1

Regarding `CCC1OC(=O)C(C)C(=O)C(C)C(OC2OC(C)CC(N(C)C)C2O)C(C)(OC)CC(C)C(=O)C(C)C2N(CC3CCCN3C(=O)c3cc4cnccc4nc3C)C(=O)OC12C` (stereo not shown) [10.41], in assay [1], the “MIC S. pneumo. 1175” value is less than 0.06 µg/mL. The “MIC S. pneumo. 1095” value in assay [2] was less than 0.06 µg/mL. Further, the “MIC H. influenzae 1218” value in assay [3] amounted to 2 µg/mL (≈ 2.31 µM). The “MIC S. pyogenes 1079” value in assay [4] is greater than 64.00 µg/mL. Also, the “MIC S. pneumo. 1016” value in assay [5] is less than 0.06 µg/mL.
Consider `CCC1OC(=O)C(C)C(=O)C(C)C(OC2OC(C)CC(N(C)C)C2O)C(C)(OC)CC(C)C(=O)C(C)C2N(CC3CCCN3C(=O)c3cc4ncccc4[nH]3)C(=O)OC12C` (stereo not shown) [10.42], for which, in assay [1], the “MIC S. pneumo. 1175” value was less than 0.06 µg/mL. Also, the “MIC S. pneumo. 1095” value in assay [2] is less than 0.06 µg/mL. Moreover, the “MIC H. influenzae 1218” value in assay [3] was found to be 0.5 µg/mL (≈ 0.595 µM). Moreover, the “MIC S. pyogenes 1079” value in assay [4] came out at 64 µg/mL (≈ 76.2 µM). In addition, the “MIC S. pneumo. 1016” value in assay [5] is less than 0.06 µg/mL.
`CCC1OC(=O)C(C)C(=O)C(C)C(OC2OC(C)CC(N(C)C)C2O)C(C)(OC)CC(C)C(=O)C(C)C2N(CC3CCCN3C(=O)c3cn4cccnc4n3)C(=O)OC12C` (stereo not shown) [10.43]: the “MIC S. pneumo. 1175” value in assay [1] is 0.25 µg/mL (≈ 0.297 µM). Moreover, the “MIC S. pneumo. 1095” value in assay [2] is less than 0.06 µg/mL. The “MIC H. influenzae 1218” value in assay [3] is 1 µg/mL (≈ 1.19 µM). Also, the “MIC S. pyogenes 1079” value in assay [4] was greater than 64.00 µg/mL. In assay [5], the “MIC S. pneumo. 1016” value was less than 0.06 µg/mL.
`CCC1OC(=O)C(C)C(=O)C(C)C(OC2OC(C)CC(N(C)C)C2O)C(C)(OC)CC(C)C(=O)C(C)C2N(CC3CCCN3C(=O)c3ccnc4ncsc34)C(=O)OC12C` (stereo not shown) [10.44]: in assay [1], the “MIC S. pneumo. 1175” value is 0.12 µg/mL (≈ 0.14 µM). In assay [2], the “MIC S. pneumo. 1095” value was less than 0.06 µg/mL. In assay [3], the “MIC H. influenzae 1218” value worked out at 1 µg/mL (≈ 1.17 µM). Further, the “MIC S. pyogenes 1079” value in assay [4] is greater than 64.00 µg/mL. Further, in assay [5], the “MIC S. pneumo. 1016” value was less than 0.06 µg/mL.
As to `CCC1OC(=O)C(C)C(=O)C(C)C(OC2OC(C)CC(N(C)C)C2O)C(C)(OC)CC(C)C(=O)C(C)C2N(CC3CCCN3C(=O)c3cnn4ccccc34)C(=O)OC12C` (stereo not shown) [10.45], the “MIC S. pneumo. 1175” value in assay [1] is less than 0.06 µg/mL. The “MIC S. pneumo. 1095” value in assay [2] was less than 0.06 µg/mL. Moreover, the “MIC H. influenzae 1218” value in assay [3] is 1 µg/mL (≈ 1.19 µM). Moreover, the “MIC S. pyogenes 1079” value in assay [4] is greater than 64.00 µg/mL. For the same compound, in assay [5], the “MIC S. pneumo. 1016” value is less than 0.06 µg/mL.
As to `CCC1OC(=O)C(C)C(=O)C(C)C(OC2OC(C)CC(N(C)C)C2O)C(C)(OC)CC(C)C(=O)C(C)C2N(CC3CCCN3S(=O)(=O)c3cccc4cnccc34)C(=O)OC12C` (stereo not shown) [10.46], the “MIC S. pneumo. 1175” value in assay [1] was less than 0.06 µg/mL. The “MIC S. pneumo. 1095” value in assay [2] is less than 0.06 µg/mL. In addition, the “MIC H. influenzae 1218” value in assay [3] was 1 µg/mL (≈ 1.13 µM). The “MIC S. pyogenes 1079” value in assay [4] turned out to be 64 µg/mL (≈ 72.1 µM). Besides, the “MIC S. pneumo. 1016” value in assay [5] is less than 0.06 µg/mL.
Take `CCC1OC(=O)C(C)C(=O)C(C)C(OC2OC(C)CC(N(C)C)C2O)C(C)(OC)CC(C)C(=O)C(C)C2N(CC3CCCN3S(=O)(=O)c3cccc4cccnc34)C(=O)OC12C` (stereo not shown) [10.47]: in assay [1], the “MIC S. pneumo. 1175” value is less than 0.06 µg/mL. In addition, the “MIC S. pneumo. 1095” value in assay [2] turned out to be 0.12 µg/mL (≈ 0.135 µM). In assay [3], the “MIC H. influenzae 1218” value amounted to 2 µg/mL (≈ 2.25 µM). Also, the “MIC S. pyogenes 1079” value in assay [4] turned out to be 64 µg/mL (≈ 72.1 µM). Also, the “MIC S. pneumo. 1016” value in assay [5] was less than 0.06 µg/mL.
Take `CCC1OC(=O)C(C)C(=O)C(C)C(OC2OC(C)CC(N(C)C)C2O)C(C)(OC)CC(C)C(=O)C(C)C2N(CC3CCCN3C(=O)c3ccc(C)[nH]c3=O)C(=O)OC12C` (stereo not shown) [10.48]: the “MIC S. pneumo. 1175” value in assay [1] worked out at 0.5 µg/mL (≈ 0.602 µM). Further, the “MIC S. pneumo. 1095” value in assay [2] came to 4 µg/mL (≈ 4.81 µM). Moreover, the “MIC H. influenzae 1218” value in assay [3] is 1 µg/mL (≈ 1.2 µM). In addition, in assay [4], the “MIC S. pyogenes 1079” value is greater than 64.00 µg/mL. Also, the “MIC S. pneumo. 1016” value in assay [5] was less than 0.06 µg/mL.
For the compound `CCC1OC(=O)C(C)C(=O)C(C)C(OC2OC(C)CC(N(C)C)C2O)C(C)(OC)CC(C)C(=O)C(C)C2N(CC3CCCN3C(=O)c3ccc4cnccc4n3)C(=O)OC12C` (stereo not shown) [10.49], the “MIC S. pneumo. 1175” value in assay [1] stood at 2 µg/mL (≈ 2.35 µM). In addition, in assay [2], the “MIC S. pneumo. 1095” value was 2 µg/mL (≈ 2.35 µM). The “MIC H. influenzae 1218” value in assay [3] worked out at 8 µg/mL (≈ 9.39 µM). For the same compound, in assay [4], the “MIC S. pyogenes 1079” value was greater than 64.00 µg/mL. In addition, the “MIC S. pneumo. 1016” value in assay [5] is less than 0.06 µg/mL.
As to `CCC1OC(=O)C(C)C(=O)C(C)C(OC2OC(C)CC(N(C)C)C2O)C(C)(OC)CC(C)C(=O)C(C)C2N(CC3CCCN3C(=O)c3ccnc4[nH]cnc34)C(=O)OC12C` (stereo not shown) [10.50], the “MIC S. pneumo. 1175” value in assay [1] turned out to be 2 µg/mL (≈ 2.38 µM). For the same compound, in assay [2], the “MIC S. pneumo. 1095” value is 0.5 µg/mL (≈ 0.595 µM). Also, the “MIC H. influenzae 1218” value in assay [3] was found to be 8 µg/mL (≈ 9.51 µM). For the same compound, the “MIC S. pyogenes 1079” value in assay [4] was greater than 64.00 µg/mL. In addition, in assay [5], the “MIC S. pneumo. 1016” value was less than 0.06 µg/mL.
On to `CCC1OC(=O)C(C)C(=O)C(C)C(OC2OC(C)CC(N(C)C)C2O)C(C)(OC)CC(C)C(=O)C(C)C2N(CC3CCCN3C(=O)c3cnn4cccnc34)C(=O)OC12C` (stereo not shown) [10.51], for which, in assay [1], the “MIC S. pneumo. 1175” value turned out to be 0.5 µg/mL (≈ 0.595 µM). In assay [2], the “MIC S. pneumo. 1095” value was less than 0.06 µg/mL. Also, in assay [3], the “MIC H. influenzae 1218” value stood at 1 µg/mL (≈ 1.19 µM). Besides, the “MIC S. pyogenes 1079” value in assay [4] is greater than 64.00 µg/mL. For the same compound, the “MIC S. pneumo. 1016” value in assay [5] was less than 0.06 µg/mL.

(Values after patent US7462600B2, “Macrolides” (Pfizer Inc, priority 2004, dated 2008).)
